Test results from patent US7902252B2, “Inhibitors of D-amino acid oxidase” (Sepracor, Inc., priority 2007, dated 2011).

What was measured:
[1] = molecular target: Human DAAO (Homo sapiens, UniProt P14920); assay: D-Amino Acid Oxidase enzyme assay (D-serine, horseradish peroxidase/Amplex Red coupled fluorescence); type: biochemical; settings: D-serine 5 mM, pH 7.4
In short: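 D-serine substrate at 5 mM (Km), 50 mM sodium phosphate pH 7.4; H2O2 output coupled via 4 U/mL horseradish peroxidase and 50 μM Amplex Red to resorufin fluorescence. Reaction started with enzyme; H2O2 control checked coupling interference; IC50 from inhibition curves.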

[2] = system: D-serine levels in the cerebellum; assay: In vivo elevation of D-serine levels in the cerebellum; parameters: species or system Mice (C57BL/6); settings: mice, intraperitoneal, dose 30 mg/kg;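 further: Cutoffs are cerebellum D-serine in nmol/g wet tissue weight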
Experimental: […] Animals are sacrificed at either 2 or 6 h post compound administration with an N=3 per time point. At sacrifice, trunk blood is collected into tubes containing potassium EDTA, which are then centrifuged to permit isolation of plasma. The cerebellum is dissected from each animal. Plasma and cerebellum samples are stored at −80° C. until samples are analyzed (LC/MS/MS).

Sequence of Human DAAO (P14920 whole entry): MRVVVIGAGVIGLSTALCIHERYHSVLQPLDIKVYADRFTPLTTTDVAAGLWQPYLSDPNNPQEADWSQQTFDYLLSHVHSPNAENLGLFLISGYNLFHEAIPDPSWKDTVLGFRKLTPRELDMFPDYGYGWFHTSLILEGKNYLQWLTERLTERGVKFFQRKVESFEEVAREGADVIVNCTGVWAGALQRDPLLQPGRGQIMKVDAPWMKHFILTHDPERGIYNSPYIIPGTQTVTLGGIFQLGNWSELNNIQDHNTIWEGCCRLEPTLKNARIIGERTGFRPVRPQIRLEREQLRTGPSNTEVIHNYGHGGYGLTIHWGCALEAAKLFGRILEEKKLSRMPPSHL

Row | SMILES | IC50 [1] | Cerebellum D-serine at 2 hours [2] | Cerebellum D-serine at 6 hours [2]
1 | CCCC1CCc2[nH]c(C(=O)O)cc21 (single isomer, unassigned) [Compound 8, 4-propyl-1,4,5,6-tetrahydrocyclopenta[b]pyrrole-2-carboxylic acid] | ≤ 0.1 µM | (++) (>5 = (++)) | (+) (2.5-4.9 = (+))
2 | O=C(O)c1cc2c([nH]1)CCC2Cc1ccc(F)cc1 (racemic) [Compound 39, 4-(4-fluorobenzyl)-1,4,5,6-tetrahydrocyclopenta[b]pyrrole-2-carboxylic acid] | ≤ 0.1 µM | (+) (2.5-4.9 = (+)) | (+) (2.5-4.9 = (+))
3 | COc1cccc(CC2CCc3[nH]c(C(=O)O)cc32)c1 (single isomer, unassigned) [Compound 68, 4-(3-methoxybenzyl)-1,4,5,6-tetrahydrocyclopenta[b]pyrrole-2-carboxylic acid] | ≤ 0.1 µM | (+) (2.5-4.9 = (+)) | (+) (2.5-4.9 = (+))
